Experimental findings from patent US9187472B2 (AbbVie Inc., priority 2012, dated 2015) are described below.

For one assay, the system named is PC3 cells. The experiment in a line: NAMPT Cell Proliferation Assay. The assay is classed as cell-based. The conditions noted are these: 5 days incubation, cell viability by Cell Titer Glo. The procedure, abridged: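 Seed PC3 at 500 cells/well (RPMI, 10% HI-FBS), attach overnight; add compound, 10-fold series 10 μM → 1×10^−5 μM; incubate 5 d, 37° C/5% CO2; luminescent viability readout; fit % inhibition sigmoidally for IC50.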
Background: Cellular ATP, detected with luciferase, serves as a proxy for viable cell number.
`O=C(NCc1ccn2ccnc2c1)c1ccc(C2CCN(C(=O)/C=C/c3ccccn3)CC2)cc1` [Example 991, -(imidazo[1,2-a]pyridin-7-ylmethyl)-4-{1-[(2E)-3-(pyridin-2-yl)prop-2-enoyl]piperidin-4-yl}benzamide] registered an IC50 of 66.9 nM.

Staying with this assay, now noted: Homo sapiens, PC-3, 120 h, 5 days incubation, cell viability by Cell Titer Glo.
In turn, `O=C(NCc1ccn2ccnc2c1)c1ccc(C2CCN(C(=O)c3onc4c3CCCC4)CC2)cc1` [Example 962, N-(imidazo[1,2-a]pyridin-7-ylmethyl)-4-[1-(4,5,6,7-tetrahydro-2,1-benzoxazol-3-ylcarbonyl)piperidin-4-yl]benzamide] registered an IC50 of 16.1 nM. In other words, the double-digit nanomolar range.

In turn, `Cc1ccc(F)c(C(=O)N2CCC(c3ccc(C(=O)NCc4ccn5ccnc5c4)cc3)CC2)n1` [Example 963, 4-{1-[(3-fluoro-6-methylpyridin-2-yl)carbonyl]piperidin-4-yl}-N-(imidazo[1,2-a]pyridin-7-ylmethyl)benzamide] registered a concentration for half-maximal inhibition (IC50) of 19.5 nM. This IC50 and that of the compound before are within 1.5-fold of each other.

On to `O=C(NCc1ccn2ccnc2c1)c1ccc(C2CCN(C(=O)c3ccnc(Cl)c3F)CC2)cc1` [Example 964, 4-{1-[(2-chloro-3-fluoropyridin-4-yl)carbonyl]piperidin-4-yl}-N-(imidazo[1,2-a]pyridin-7-ylmethyl)benzamide], for which 6.22 nM corresponded to half-maximal inhibition (IC50).

The compound `O=C(NCc1ccn2ccnc2c1)c1ccc(C2CCN(C(=O)c3ncccc3Cl)CC2)cc1` [Example 965, 4-{1-[(3-chloropyridin-2-yl)carbonyl]piperidin-4-yl}-N-(imidazo[1,2-a]pyridin-7-ylmethyl)benzamide] gave a half-maximal inhibitory concentration (IC50) of 8.31 nM.

`O=C(NCc1ccn2ccnc2c1)c1ccc(C2CCN(C(=O)C3(c4ccccn4)CC3)CC2)cc1` [Example 966, N-(imidazo[1,2-a]pyridin-7-ylmethyl)-4-(1-{[1-(pyridin-2-yl)cyclopropyl]carbonyl}piperidin-4-yl)benzamide] yielded a half-inhibitory concentration (IC50) of 2.09 nM. Compared with the last compound, the IC50 is about 4-fold lower.

Turning to `O=C(NCc1ccn2ccnc2c1)c1ccc(C2CCN(C(=O)c3ccn(C4CCCC4)n3)CC2)cc1` [Example 967, 4-{1-[(1-cyclopentyl-1H-pyrazol-3-yl)carbonyl]piperidin-4-yl}-N-(imidazo[1,2-a]pyridin-7-ylmethyl)benzamide], the IC50 turned out to be 3.96 nM.

The compound `CC(Oc1cccc(F)c1)C(=O)N1CCC(c2ccc(C(=O)NCc3ccn4ccnc4c3)cc2)CC1` (centres unmarked) [Example 968, 4-{1-[2-(3-fluorophenoxy)propanoyl]piperidin-4-yl}-N-(imidazo[1,2-a]pyridin-7-ylmethyl)benzamide] showed an IC50 of 1.77 nM. This IC50 is about 2.2-fold lower than that of the compound before.

On to `O=C(NCc1ccn2ccnc2c1)c1ccc(C2CCN(C(=O)c3ccnn3C(F)F)CC2)cc1` [Example 969, 4-(1-{[1-(difluoromethyl)-1H-pyrazol-5-yl]carbonyl}piperidin-4-yl)-N-(imidazo[1,2-a]pyridin-7-ylmethyl)benzamide], for which 6.36 nM corresponded to half-maximal inhibition (IC50).

In turn, `O=C(NCc1ccn2ccnc2c1)c1ccc(C2CCN(C(=O)c3ccc4c(c3)CCCO4)CC2)cc1` [Example 970, 4-[1-(3,4-dihydro-2H-chromen-6-ylcarbonyl)piperidin-4-yl]-N-(imidazo[1,2-a]pyridin-7-ylmethyl)benzamide] displayed an IC50 of 10.9 nM.

Compound `O=C(NCc1ccn2ccnc2c1)c1ccc(C2CCN(C(=O)COC3CCCCC3)CC2)cc1` [Example 971, 4-{1-[(cyclohexyloxy)acetyl]piperidin-4-yl}-N-(imidazo[1,2-a]pyridin-7-ylmethyl)benzamide] registered an IC50 of 22.6 nM.

In the case of `O=C(NCc1ccn2ccnc2c1)c1ccc(C2CCN(C(=O)Cc3cccnc3Cl)CC2)cc1` [Example 972, 4-{1-[(2-chloropyridin-3-yl)acetyl]piperidin-4-yl}-N-(imidazo[1,2-a]pyridin-7-ylmethyl)benzamide], the 50% inhibitory concentration (IC50) amounted to 28.9 nM.

With `O=C(NCc1ccn2ccnc2c1)c1ccc(C2CCN(C(=O)c3cc(C4CC4)on3)CC2)cc1` [Example 973, 4-{1-[(5-cyclopropyl-1,2-oxazol-3-yl)carbonyl]piperidin-4-yl}-N-(imidazo[1,2-a]pyridin-7-ylmethyl)benzamide], the IC50 came out at 21.8 nM.

Take `O=C(NCc1ccn2ccnc2c1)c1ccc(C2CCN(C(=O)C3=Cc4ccccc4OC3)CC2)cc1` [Example 974, 4-[1-(2H-chromen-3-ylcarbonyl)piperidin-4-yl]-N-(imidazo[1,2-a]pyridin-7-ylmethyl)benzamide]: the IC50 came out at 28.7 nM.

As for `O=C(NCc1ccn2ccnc2c1)c1ccc(C2CCN(C(=O)c3ncc(F)cc3F)CC2)cc1` [Example 975, 4-{1-[(3,5-difluoropyridin-2-yl)carbonyl]piperidin-4-yl}-N-(imidazo[1,2-a]pyridin-7-ylmethyl)benzamide], the IC50 came to 50.3 nM. This IC50 lies about 1.8-fold higher than the previous one.

Regarding `O=C(NCc1ccn2ccnc2c1)c1ccc(C2CCN(C(=O)C3COc4ccccc4O3)CC2)cc1` (centres unmarked) [Example 976, 4-[1-(2,3-dihydro-1,4-benzodioxin-2-ylcarbonyl)piperidin-4-yl]-N-(imidazo[1,2-a]pyridin-7-ylmethyl)benzamide], half-maximal inhibition (IC50) was put at 34.9 nM.

Compound `COC1CCC(C(=O)N2CCC(c3ccc(C(=O)NCc4ccn5ccnc5c4)cc3)CC2)CC1` (centres unmarked) [Example 977, N-(imidazo[1,2-a]pyridin-7-ylmethyl)-4-{1-[(4-methoxycyclohexyl)carbonyl]piperidin-4-yl}benzamide] yielded an IC50 of 2.65 nM.

`O=C(NCc1ccn2ccnc2c1)c1ccc(C2CCN(C(=O)c3cccc4c3OCCO4)CC2)cc1` [Example 978, 4-[1-(2,3-dihydro-1,4-benzodioxin-5-ylcarbonyl)piperidin-4-yl]-N-(imidazo[1,2-a]pyridin-7-ylmethyl)benzamide]: the IC50 stood at 2.02 nM.

`O=C(NCc1ccn2ccnc2c1)c1ccc(C2CCN(C(=O)c3cncc4ccccc34)CC2)cc1` [Example 979, N-(imidazo[1,2-a]pyridin-7-ylmethyl)-4-[1-(isoquinolin-4-ylcarbonyl)piperidin-4-yl]benzamide] gave an IC50 of 75.7 nM.

In turn, `Cc1nc2ccc(C(=O)N3CCC(c4ccc(C(=O)NCc5ccn6ccnc6c5)cc4)CC3)cc2o1` [Example 980, N-(imidazo[1,2-a]pyridin-7-ylmethyl)-4-{1-[(2-methyl-1,3-benzoxazol-6-yl)carbonyl]piperidin-4-yl}benzamide] showed an IC50 of 29.4 nM.

The compound `Cc1cc(C(=O)N2CCC(c3ccc(C(=O)NCc4ccn5ccnc5c4)cc3)CC2)n(C(C)(C)C)n1` [Example 981, 4-{1-[(1-tert-butyl-3-methyl-1H-pyrazol-5-yl)carbonyl]piperidin-4-yl}-N-(imidazo[1,2-a]pyridin-7-ylmethyl)benzamide] came in with an IC50 of 6.54 nM.

`N#CC1(C(=O)N2CCC(c3ccc(C(=O)NCc4ccn5ccnc5c4)cc3)CC2)CCCC1` [Example 982, 4-{1-[(1-cyanocyclopentyl)carbonyl]piperidin-4-yl}-N-(imidazo[1,2-a]pyridin-7-ylmethyl)benzamide]: the midpoint of inhibition, the IC50, lay at 100 nM.

`O=C(NCc1ccn2ccnc2c1)c1ccc(C2CCN(C(=O)c3cc4ncccc4s3)CC2)cc1` [Example 983, N-(imidazo[1,2-a]pyridin-7-ylmethyl)-4-[1-(thieno[3,2-b]pyridin-2-ylcarbonyl)piperidin-4-yl]benzamide] returned an IC50 of 724 nM.

The compound `O=C(NCc1ccn2ccnc2c1)c1ccc(C2CCN(C(=O)c3ccc4cccnc4c3)CC2)cc1` [Example 984, N-(imidazo[1,2-a]pyridin-7-ylmethyl)-4-[1-(quinolin-7-ylcarbonyl)piperidin-4-yl]benzamide] had an IC50 of 55.4 nM.

With `N#Cc1ccc(F)c(C(=O)N2CCC(c3ccc(C(=O)NCc4ccn5ccnc5c4)cc3)CC2)c1` [Example 985, 4-[1-(5-cyano-2-fluorobenzoyl)piperidin-4-yl]-N-(imidazo[1,2-a]pyridin-7-ylmethyl)benzamide], the IC50 turned out to be 28.3 nM. Against the preceding compound, the IC50 is about 2-fold lower.

The compound `O=C(NCc1ccn2ccnc2c1)c1ccc(C2CCN(C(=O)c3cnc4c(c3)CCCC4)CC2)cc1` [Example 986, N-(imidazo[1,2-a]pyridin-7-ylmethyl)-4-[1-(5,6,7,8-tetrahydroquinolin-3-ylcarbonyl)piperidin-4-yl]benzamide] came in with an IC50 of 21.4 nM.

Consider `O=C(NCc1ccn2ccnc2c1)c1ccc(C2CCN(C(=O)c3cnc4c(c3)CCCO4)CC2)cc1` [Example 987, 4-[1-(3,4-dihydro-2H-pyrano[2,3-b]pyridin-6-ylcarbonyl)piperidin-4-yl]-N-(imidazo[1,2-a]pyridin-7-ylmethyl)benzamide], for which half-maximal inhibition (IC50) was put at 543 nM.

In turn, `O=C(NCc1ccn2ccnc2c1)c1ccc(C2CCN(C(=O)c3ccc4ccncc4c3)CC2)cc1` [Example 988, N-(imidazo[1,2-a]pyridin-7-ylmethyl)-4-[1-(isoquinolin-7-ylcarbonyl)piperidin-4-yl]benzamide] gave an IC50 of 60.1 nM.

With `O=C(NCc1ccn2ccnc2c1)c1ccc(C2CCN(C(=O)c3cnc4ccccc4n3)CC2)cc1` [Example 989, N-(imidazo[1,2-a]pyridin-7-ylmethyl)-4-[1-(quinoxalin-2-ylcarbonyl)piperidin-4-yl]benzamide], the midpoint of inhibition, the IC50, lay at 68.2 nM.

With `COc1ncccc1/C=C/C(=O)N1CCC(c2ccc(C(=O)NCc3ccn4ccnc4c3)cc2)CC1` [Example 990, N-(imidazo[1,2-a]pyridin-7-ylmethyl)-4-{1-[(2E)-3-(2-methoxypyridin-3-yl)prop-2-enoyl]piperidin-4-yl}benzamide], it took 17.9 nM to reach half-maximal inhibition (IC50).

For the compound `Cc1cccn2cc(C(=O)N3CCC(c4ccc(C(=O)NCc5ccn6ccnc6c5)cc4)CC3)nc12` [Example 992, N-(imidazo[1,2-a]pyridin-7-ylmethyl)-4-{1-[(8-methylimidazo[1,2-a]pyridin-2-yl)carbonyl]piperidin-4-yl}benzamide], half-maximal inhibition (IC50) required 584 nM.

As for `CCOc1cc(C(=O)N2CCC(c3ccc(C(=O)NCc4ccn5ccnc5c4)cc3)CC2)ccn1` [Example 993, 4-{1-[(2-ethoxypyridin-4-yl)carbonyl]piperidin-4-yl}-N-(imidazo[1,2-a]pyridin-7-ylmethyl)benzamide], the IC50 came to 74 nM. Compared with the last compound, the IC50 is about 7.9-fold lower.

Usually IC50 stands for the concentration at which inhibition is half-maximal.
